Earlier results in paper PMC9171782 (Proceedings of the National Academy of Sciences of the …, 2022).

Experiments:
[1] = system: GLP-1R with mutation of W33; conditions: mutation of W33 conserved in human and primate GLP-1Rs
[2] = system: cynomolgus monkeys

Compound	agonist activity at W33-mutated GLP-1R [1]	insulinotropic activity upon oral intake [2]	bioavailability (noninjectable formulation in the clinic)	gastrointestinal complaints (such as nausea and vomiting)
Cc1cc(-n2nc3c(c2-n2ccn(-c4ccc5c(cnn5C)c4F)c2=O)[C@H](C)N(C(=O)c2cc4cc([C@H]5CCOC(C)(C)C5)ccc4n2[C@@]2(c4noc(=O)[nH]4)C[C@@H]2C)CC3)cc(C)c1F [LY3502970]	failed to elicit agonist activity	demonstrated		
Cc1cc(-n2nc3c(c2-n2ccn(-c4ccc5c(cnn5C)c4F)c2=O)[C@H](C)N(C(=O)c2cc4cc(N5CCOC(C)(C)C5)ccc4n2[C@@]2(c4noc(=O)[nH]4)C[C@@H]2C)CC3)cc(C)c1F [CHU-128]	failed to elicit agonist activity			
N#Cc1ccc(COc2cccc(C3CCN(Cc4nc5ccc(C(=O)O)cc5n4C[C@@H]4CCO4)CC3)n2)c(F)c1 [PF-06882961]	failed to elicit agonist activity	demonstrated		
Semaglutide			low bioavailability	frequent gastrointestinal complaints
N#Cc1ccc(COc2cccc(C3=CCN(Cc4nc5ccc(C(=O)O)nc5n4C[C@@H]4CCO4)CC3)n2)c(F)c1 [RGT1383]	failed to elicit agonist activity			
